Columns and labels:
HIV integrase = HIV integrase (Human immunodeficiency virus type 1 group M subtype B, UniProt P04585); test: biochemical
Description: The inhibitory activities against integrase were determined by the assay described below. • (1) Preparation of DNA Solutions
Before using the DNA solutions, complementary chains were annealed by slowly cooling after boiling.
Streptavidin, obtained from Vector Laboratories, was dissolved in 0.1 M carbonate buffer (composition: 90 mM Na2CO3, 10 mM NaHCO3) at concentration of 40 μg/ml. After coating each well of immunoplates (obtained from NUNC) with 50 μl of the above solution at 4° C. over night, each well was washed twice with PBS (composition: 13.7 mM NaCl, 0.27 mM KCl, 0.43 mM Na2HPO4, 0.14 mM KH2PO4) and blocked with 300 μl of 1% skim milk in PBS for 30 min. Additionally, each well was washed twice with PBS and added 50 μl of substrate DNA solution (2 pmol/μl). The immunoplates were kept at room temperature for 30 min while shaking. Then, each well was washed twice with PBS and once with the distilled water.
Subsequently, in the each well prepared above were added 51 μl of the reaction solution prepared from 12 μl of the buffer (composition: 150 mM MOPS (pH7.2), 75 mM MnCl2, 50 mM 2-mercaptoethanol, 25% glycerol, 500 μg/ml bovine serum albumin-fraction V), and 39 μl of the distilled water. Then 9 μl of an integrase solution (30 pmol) was added and mixed well. In the well of negative control (NC) was added 9 μl of the integrase dilution buffer (composition: 20 mM MOPS (pH7.2), 400 mM potassium glutamate, 1 mM EDTA, 0.1% NP-40, 20% glycerol, 1 mM DTT, 4M urea), and mixed well using a plate mixer.
The plates were incubated at 30° C. for 60 minutes. The reaction solution was removed and washed three times with 250 μl of washing buffer (composition: 150 mM MOPS (pH7.2), 50 mM 2-mercaptoethanol, 25% glycerol, 500 μg/ml bovine serum albumin-fraction V).
Then each well was added with 53 μl of reaction solution prepared from 12 μl of buffer (composition: 150 mM MOPS (pH7.2), 75 mM MgCl2, 50 mM 2-mercaptoethanol, 25% glycerol, 500 μg/ml bovine serum albumin-fraction V) and 41 μl of distilled water. Further, each well was added with 6 μl of DMSO solution of a compound to be tested, and the well of positive control (PC) was added with 6 μl of DMSO, and mixed well by a plate mixer. After incubating the plate for 30 minutes at 30° C., was added 1 μl of target DNA (5 pmol/μl), and mixed well by a plate mixer.
After incubation for 10 minutes at 30° C., each plate was washed twice with PBS after removal of the reaction solution. Then, 100 μl of ×2000 diluted solution of anti-digoxigenin antibody labeled with alkaline phosphatase (sheep Fab fragment: Boehringer) was added allowed to bind for 1 hour at 30° C., and washed twice with PBS containing 0.05% Tween20 and once with PBS in this sequence. Next, 150 μl of the Alkaline phosphatase coloring buffer (composition: 10 mM p-Nitrophenylphosphate (obtained from Vector Laboratories), 5 mM MgCl2, 100 mM NaCl, 100 mM Tris-HCl (pH 9.5)) was added and allowed to react for 2 hours at 30° C. Then the reaction was terminated by the addition of 50 μl of 1N NaOH solution. The optical density at 405 nm (OD405nm) of each well was measured and the inhibition rate (IC50) was determined by the following expression. The inhibition rate(%)=100[1−{(C abs.−NC abs.)/(PC abs.−NC abs.)}]
C abs.; the OD of the well of the compound
NC abs.: the OD of the negative control (NC)
PC abs.: the OD of the positive control (PC)

SMILES: Cc1nc(C(=O)NN(C)C)c(O)c2ncc(Cc3ccc(F)cc3)cc12 [Example B-17, 3-(4-fluorobenzyl)-8-hydroxy-5-methyl[1,6]naphthyridine-7-carboxylic acid N′,N′-dimethylhydrazide]
- IC50 (HIV integrase): 16.9 nM
- melting point: 137 to 139 °C

SMILES: CC(O)c1nc(C(=O)NN(C)C)c(O)c2ncc(Cc3ccc(F)cc3)cc12 (stereo not drawn) [Example B-18, 3-(4-fluorobenzyl)-8-hydroxy-5-(1-hydroxyethyl)[1,6]naphthyridine-7-carboxylic acid N′,N′-dimethylhydrazide]
- IC50 (HIV integrase): 44.2 nM
- melting point: 114 to 116 °C

SMILES: COCC=Cc1nc(C(=O)NN(C)C)c(O)c2ncc(Cc3ccc(F)cc3)cc12 [Example B-19, 3-(4-fluorobenzyl)-8-hydroxy-5-(3-methoxypropenyl)[1,6]naphthyridine-7-carboxylic acid N′,N′-dimethylhydrazide]
- IC50 (HIV integrase): 11.2 nM
- melting point: 115 to 116 °C
